Laboratory results from ChEMBL document CHEMBL1132021, “Synthesis of an imidazo[1,2-e]purine-acridine heterodimer for targeting abasic sites in DNA” (Bioorg Med Chem Lett, 1999).

Experiment: Ionization state of the molecule at physiological pH was evaluated by potentiometry.
Format: ADME

| SMILES | pKa |
| --- | --- |
| Nc1ncnc2c1nc(N)n2[C@@H]1O[C@H](CO)[C@@H](O)[C@H]1O | 4 |
| COc1ccc2nc3cc(Cl)ccc3c(N)c2c1 | 8.99 |
